Measured values from patent US12522587B2, “Cancer treatments targeting cancer stem cells” (Remedy Plan, Inc., priority 2018, dated 2026).
Where two headings read alike, the source gives them in different places.

Tests used:
[1] = tested on: AGS cells; experiment: Cell viability in AGS cells (CellTiter Glo2, 8-point dose response, 4 days); type: cell-based, human
Procedure: AGS cells were treated with DMSO (no drug control) or each compound in Table 5 in an 8-point dose response for 4 days. Cell viability was measured using CellTiter Glo2. The IC50 of each compound was determined using CDD Vault.

[2] = tested on: MV-4-11 cells; experiment: Cell viability in MV-4-11 cells (CellTiter Glo2, 4 days); type: cell-based; conditions: Homo sapiens, MV4-11, 96 h
Procedure: Approximately 10,000 MV-4-11 cells per well of a 96-well plate were treated with DMSO (no drug control) or each compound in Table 6 in an 8-point dose response for 4 days. Cell viability was measured using CellTiter Glo2. The IC50 of each compound was determined using CDD Vault.

[3] = tested on: RS4;11 cells; experiment: Cell viability in RS4;11 cells (CellTiter Glo2, 4 days); type: cell-based; conditions: Homo sapiens, 96 h
Procedure: Approximately 10,000 RS4;11 cells per well of a 96-well plate were treated with DMSO (no drug control) or each compound in Table 6 in an 8-point dose response for 4 days. Cell viability was measured using CellTiter Glo2. The IC50 of each compound was determined using CDD Vault.

IC50 ([1]; Homo sapiens, AGS, 96 h)	IC50 [2]	IC50 [3]	IC50 [1]	SMILES
1280 nM	1220 nM	231 nM		CCC(=O)N(C)c1ccc(-c2ccc(C(=O)NCc3cccnc3)cn2)cc1C [Compound I-232, 6-(3-methyl-4-(N-methylpropionamido)phenyl)-N-(pyridin-3-ylmethyl)nicotinamide]
3810 nM	765 nM	1930 nM		CCC(=O)N(C)Cc1ccc(-c2ccc(C(=O)NCc3cccnc3)cc2)cc1 [Compound I-228, 4′-((N-methylpropionamido)methyl)-N-(pyridin-3-ylmethyl)-[1,1′-biphenyl]-4-carboxamide]
> 30000 nM	3920 nM	10500 nM		CCC(=O)N(C)c1ccc(-c2nc(C(=O)NCc3cccnc3)cs2)cc1 [Compound I-241, 2-(4-(N-methylpropionamido)phenyl)-N-(pyridin-3-ylmethyl)thiazole-4-carboxamide]

The remaining lines, values behind:

SMILES	IC50 ([1]; Homo sapiens, AGS, 96 h)	IC50 [2]	IC50 [3]	IC50 [1]
CCC(=O)N(C)c1ccc(-c2ccc(C(=O)NCc3cccnc3)cc2)cc1 [Compound I-45, 4′-(N-methylpropionamido)-N-(pyridin-3-ylmethyl)-[1,1′-biphenyl]-4-carboxamide]	4450 nM	218 nM	689 nM	4290 nM
CC(=O)N(C)c1ccc(-c2ccc(C(=O)NCc3cccnc3)nc2)cc1 [Compound I-202, 5-(4-(N-methylacetamido)phenyl)-N-(pyridin-3-ylmethyl)picolinamide]	10300 nM	1470 nM	2550 nM	17500 nM
CCC(=O)N(C)c1ccc(-c2ccc(C(=O)NCc3cccnc3)cc2)c(Cl)c1 [Compound I-224, 2′-chloro-4′-(N-methylpropionamido)-N-(pyridin-3-ylmethyl)-[1,1′-biphenyl]-4-carboxamide]	1480 nM	1100 nM	5320 nM	
CCC(=O)N1CCc2c1ccc(-c1ccc(C(=O)NCc3cccnc3)cc1)c2C [Compound I-80, 4-(4-methyl-1-propionylindolin-5-yl)-N-(pyridin-3-ylmethyl)benzamide]	490 nM	565 nM	886 nM	653 nM
CCC(=O)N1CCc2cc(-c3ccc(C(=O)NCc4cccnc4)cc3)cc(C)c21 [Compound I-17, 4-(7-methyl-1-propionylindolin-5-yl)-N-(pyridin-3-ylmethyl)benzamide]	1050 nM	670 nM	270 nM	1020 nM
CCC(=O)N1CCc2cc(-c3ccc(C(=O)NCc4cccnc4)cn3)ccc21 [Compound I-54, 6-(1-propionylindolin-5-yl)-N-(pyridin-3-ylmethyl)nicotinamide]	> 17000 nM	10400 nM	4920 nM	> 16900 nM
CCC(=O)N1CCc2cc(-c3ccc(C(=O)NCc4cccnc4)cc3)ccc21 [Compound I-43, 4-(1-propionylindolin-5-yl)-N-(pyridin-3-ylmethyl) benzamide]	2480 nM	2930 nM	606 nM	2360 nM
